Test results taken from patent US20080262071A1 (priority 2004, published 2008).
Read-outs that look alike come from different tables or passages of the source.

How the values were obtained:
[1] = Blood pressure after single oral dose in healthy male volunteers; type: in vivo, human; conditions: healthy subjects
Protocol: Ten healthy male volunteers were tested on two separate occasions one week apart. On both occasions their blood pressure was measured at baseline.

5HT1a receptors = biological target: T1, 5HT1a receptors (Homo sapiens, UniProt P08908); conditions: cited from earlier work
T1 construct: host or cells: human subjects, in vivo PET
T1 sequence (P08908 1-422): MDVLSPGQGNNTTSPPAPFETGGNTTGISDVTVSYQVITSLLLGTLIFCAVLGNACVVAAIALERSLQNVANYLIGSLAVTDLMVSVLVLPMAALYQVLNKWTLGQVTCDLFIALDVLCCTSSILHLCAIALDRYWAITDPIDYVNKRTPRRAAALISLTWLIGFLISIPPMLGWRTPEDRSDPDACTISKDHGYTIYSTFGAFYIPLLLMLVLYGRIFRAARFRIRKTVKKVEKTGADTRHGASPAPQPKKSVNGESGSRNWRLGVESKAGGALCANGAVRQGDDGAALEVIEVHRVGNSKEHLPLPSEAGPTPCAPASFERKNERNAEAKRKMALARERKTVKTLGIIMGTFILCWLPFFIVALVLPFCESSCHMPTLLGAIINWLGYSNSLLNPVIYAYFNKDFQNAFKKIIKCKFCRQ

[2] = man, after administration of the racemate; cited from earlier work
[3] = Single blind pilot study of pindolol in PMS (COPE diary, CGI); type: in vivo, human
Excerpt: A single blind pilot study to evaluate the safety, efficacy and tolerability of pindolol in PMS was initiated at one study centre. The trial objectives were to: […] […] Twenty subjects were recruited who met the criteria for inclusion in the study. After screening subjects underwent a one month assessment period with prospective diaries (COPE, Calendar of Premenstrual Events). By calculating the subjects COPE scores in the follicular and luteal phases, a diagnosis of late luteal phase dysphoric disorder could be made. All subjects then entered the single-blind placebo treatment period and the subjects' outcome at the end of this cycle acted as their baseline assessment. Subjects were then treated with pindolol for the next three cycles and assessed using the COPE. During this three month period, subjects may have a sequential increase in dose at monthly intervals from 15 to 25 mg/day to optimize response. Provision was made for dose decreases in case of tolerability concerns. Subjects were aware that they would receive three months of active and one month of placebo but were unaware of when the placebo was administered. […] Secondary efficacy measures included; mean change from the end of the placebo period in luteal phase total COPE score; mean change from end of the placebo period in luteal phase physical COPE symptoms; mean change from the end of the luteal phase behavioral symptoms; mean change from end of the placebo period in follicular phase total COPE score; CGI improvement score at each of the three menstrual cycles.

[4] = meta-analysis of 14 double-blind trials; cited from earlier work
[5] = PMS subjects; cited from earlier work
[6] = luteal phase administration; cited from earlier work
[7] = Case treatment of a person with premenstrual dysphoric disorder, daily symptom diary; type: in vivo, human; conditions: month 2, 5 mg three times daily throughout luteal phase
Excerpt: Patient was a person with a long history of premenstrual dysphoric disorder.
Throughout each cycle, a daily diary was used to document symptoms.

[8] = PMS subjects, three cycles of pindolol

Compound: CC(C)NCC(O)COc1cccc2[nH]ccc12 (racemic) [pindolol]
- blood pressure ([1]; 10 mg orally): definite drop in blood pressure
- diastolic blood pressure ([1]; 10 mg): definite drops in diastolic blood pressure
- occupancy of 5HT1a receptors (5HT1a receptors; 2.5 mg): did not generate any significant occupancy
- occupancy of 5HT1a receptors (5HT1a receptors; 5.0 mg): 19%
- differences between (−) and (+) pindolol in AUC, Cmax and t1/2 hrs [2]: minor differences
- tolerability ([3]; 15 to 25 mg/day): very well tolerated
- withdrawals for unacceptable reductions in blood pressure ([3]; 15 to 25 mg/day): no withdrawals
- CGI improvement [3, 8]: improvement in CGI
- behavioral COPE scores [3, 8]: Particularly significant decreases
- total COPE score ([3]; all patients treated with active drug, vs end of placebo period): decrease in the reduction of total COPE score
- total COPE score ([3]; patients on doses of 15 mg and above): Significant decreases

Compound: CC(=O)[C@H]1CC[C@H]2[C@@H]3CCC4=CC(=O)CC[C@]4(C)[C@H]3CC[C@]12C [Progesterone]
- difference from placebo treatment in PMS [4]: did not find a clinically significant difference

Compound: CC(C)NCC(O)COc1ccc(CC(N)=O)cc1 (stereo not shown) [atenolol]
- several other scales [5]: significant improvement was not found

Compound: CNCCC(Oc1ccc(C(F)(F)F)cc1)c1ccccc1 (stereo not shown) [fluoxetine]
- efficacy in PMDD [6]: some efficacy

Compound: CN[C@H]1CC[C@@H](c2ccc(Cl)c(Cl)c2)c2ccccc21 [sertraline]
- efficacy in PMDD [6]: some efficacy

Compound: S-(−)-pindolol [(−) pindolol]
- mood and anxiety (daily diary) [7]: helped improve mood and reduce anxiety
